Key:
[1] = MRT (0 to infinity) in Sprague-Dawley rat at 2 mg/kg, ig by LC-MS/MS analysis; type: ADME, organism-based; conditions: in vivo, po
[2] = Acute toxicity in Sprague-Dawley rat assessed as change in growth at 15 to 200 mg/kg, po administered every alternate days for 14 days; type: organism-based; conditions: in vivo, 336 h, dose 15-200 mg/kg, time 14 day
[3] = Nephrotoxicity in Sprague-Dawley rat assessed as change in creatinine level in blood at 15 to 200 mg/kg, po administered every alternate days for 2 weeks measured on day 14; type: toxicity, organism-based; conditions: in vivo, 336 h, dose 15-200 mg/kg, time 14 day
[4] = Clearance in Beagle dog at 2 mg/kg, ig by LC-MS/MS analysis; type: ADME, organism-based, Canis lupus familiaris; conditions: in vivo, po
[5] = Cmax in Beagle dog at 2 mg/kg, ig by LC-MS/MS analysis; type: ADME, organism-based, Canis lupus familiaris; parameters: route […], dose 2 mg/kg; conditions: in vivo, po
[6] = Acute toxicity in Sprague-Dawley rat assessed as change in ratio of liver to body weight at 15 to 200 mg/kg, po administered every alternate days for 2 weeks measured on day 14; type: organism-based; conditions: in vivo, 336 h, dose 15-200 mg/kg, time 14 day
[7] = Cmax in Sprague-Dawley rat at 2 mg/kg, ig by LC-MS/MS analysis; type: ADME, organism-based; parameters: route […], dose 2 mg/kg; conditions: in vivo, po
[8] = species: Homo sapiens; assay: Selectivity index, ratio of IC50 for KDM4A (unknown origin) in presence of peptide substrate incubated for 30 mins by alpha screen assay to IC50 for PHD2 (unknown origin) by O-phenyl enediamine(OPD) based fluorescence assay
[9] = Half-life in Beagle dog at 0.5 mg/kg, iv by LC-MS/MS analysis; type: ADME, organism-based, Canis lupus familiaris; conditions: in vivo
[10] = Intrinsic clearance in human liver microsome at 1 uM preincubated for 5 mins followed by NADPH addition measured up to 120 mins by LC-MS/MS analysis; type: ADME; conditions: microsomes, 2 h, time <=125 min
[11] = Clearance in Sprague-Dawley rat at 1 mg/kg, iv by LC-MS/MS analysis; type: ADME, organism-based; conditions: in vivo
[12] = target: Egl nine homolog 1 (Homo sapiens, UniProt Q9GZT9); assay: Inhibition of PHD2 in human Hep3B cells assessed as increase in EPO expression measured after 24 hrs by ELISA; type: cell-based; conditions: dose microM 5-50, time 24.0 hrs
Chain of Egl nine homolog 1 (Q9GZT9 2-426 limits assumed): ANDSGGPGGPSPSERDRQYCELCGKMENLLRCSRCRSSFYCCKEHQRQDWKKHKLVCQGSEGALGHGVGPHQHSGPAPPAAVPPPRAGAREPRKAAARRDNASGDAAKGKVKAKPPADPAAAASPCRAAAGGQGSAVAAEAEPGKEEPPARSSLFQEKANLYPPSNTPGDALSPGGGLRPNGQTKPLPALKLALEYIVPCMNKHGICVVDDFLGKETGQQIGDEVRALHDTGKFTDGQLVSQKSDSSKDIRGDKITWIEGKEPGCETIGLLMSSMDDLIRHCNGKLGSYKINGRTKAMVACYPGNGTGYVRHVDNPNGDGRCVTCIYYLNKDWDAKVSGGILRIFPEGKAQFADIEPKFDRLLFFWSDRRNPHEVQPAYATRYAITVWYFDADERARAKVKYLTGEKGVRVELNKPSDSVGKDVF

[13] = species: Homo sapiens; assay: Selectivity index, ratio of IC50 for KDM6B (unknown origin) in presence of peptide substrate incubated for 30 mins by alpha screen assay to IC50 for PHD2 (unknown origin) by O-phenyl enediamine(OPD) based fluorescence assay
[14] = Half-life in dog liver microsome at 1 uM preincubated for 5 mins followed by NADPH addition measured up to 120 mins by LC-MS/MS analysis; type: ADME, Canis lupus familiaris; conditions: liver microsomes, time <=125 min
[15] = Hepatotoxicity in male Sprague-Dawley rat assessed as change in alanine aminotransferase level in blood at 15 to 200 mg/kg, po administered every alternate days for 2 weeks measured on day 14; type: toxicity, organism-based; conditions: in vivo, 336 h, dose 15-200 mg/kg, time 14 day
[16] = Intrinsic clearance in dog liver microsome at 1 uM preincubated for 5 mins followed by NADPH addition measured up to 120 mins by LC-MS/MS analysis; type: ADME, Canis lupus familiaris; conditions: microsomes, 2 h, time <=125 min
[17] = AUC (0 to infinity) in Beagle dog at 0.5 mg/kg, iv by LC-MS/MS analysis; type: ADME, organism-based, Canis lupus familiaris; parameters: time infinity, route intravenous, dose 0.5 mg/kg; conditions: in vivo
[18] = Genotoxicity in Salmonella typhimurium TA98 at 62.5 to 1000 ug incubated for 48 to 50 hrs in presence of S9 fraction by Ames test; type: toxicity, subcellular, Salmonella enterica subsp. enterica serovar Typhimurium; conditions: dose 62.5-1000 µg, time 48-50 hrs
[19] = In vivo inhibition of PHD2 in C57BL/6 mouse assessed as increase in EPO plasma level by measuring EPO level at 15 mg/kg, iv measured after 4 hrs by ELISA; type: functional
[20] = Apparent volume of distribution in Sprague-Dawley rat at 2 mg/kg, ig by LC-MS/MS analysis; type: ADME, organism-based; conditions: in vivo, po
[21] = AUC (0 to t) in Beagle dog at 2 mg/kg, ig by LC-MS/MS analysis; type: ADME, organism-based, Canis lupus familiaris; parameters: dose 2 mg/kg; conditions: in vivo, po
[22] = test system: Mus musculus; assay: Antianemic activity in cisplatin-induced C57BL/6 mouse anemia model assessed as improvement in anemia at 10 mg/kg, po administered every other day for 1 month; type: functional; conditions: time 1 months, 730 h
[23] = Acute toxicity in Sprague-Dawley rat assessed as change in ratio of brain to body weight at 15 to 200 mg/kg, po administered every alternate days for 2 weeks measured on day 14; type: organism-based; conditions: in vivo, 336 h, dose 15-200 mg/kg, time 14 day
[24] = Nephrotoxicity in Sprague-Dawley rat assessed as change in urea level in blood at 15 to 200 mg/kg, po administered every alternate days for 2 weeks measured on day 14; type: toxicity, organism-based; conditions: in vivo, 336 h, dose 15-200 mg/kg, time 14 day
[25] = Half-life in human liver microsome at 1 uM preincubated for 5 mins followed by NADPH addition measured up to 120 mins by LC-MS/MS analysis; type: ADME; conditions: liver microsomes, time <=125 min
[26] = Acute toxicity in female Sprague-Dawley rat assessed as change in ratio of uterus with cervix to body weight at 15 to 200 mg/kg, po administered every alternate days for 2 weeks measured on day 14; type: organism-based; conditions: in vivo, 336 h, dose 15-200 mg/kg, time 14 day
[27] = Intrinsic clearance in monkey liver microsome at 1 uM preincubated for 5 mins followed by NADPH addition measured up to 120 mins by LC-MS/MS analysis; type: ADME, Macaca mulatta; conditions: rhesus monkey, microsomes, 2 h, time <=125 min
[28] = AUC (0 to infinity) in Beagle dog at 2 mg/kg, ig by LC-MS/MS analysis; type: ADME, organism-based, Canis lupus familiaris; parameters: route […], time infinity, dose 2 mg/kg; conditions: in vivo, po
[29] = Hepatotoxicity in male Sprague-Dawley rat assessed as change in albumin level at 15 to 200 mg/kg, po administered every alternate days for 2 weeks measured on day 14; type: toxicity, organism-based; conditions: in vivo, 336 h, dose 15-200 mg/kg, time 14 day
[30] = target: T1, Cytochrome P450 1A2 (Homo sapiens, UniProt P05177); assay: Inhibition of CYP1A2 (unknown origin) using phenacetin as substrate preincubated for 5 mins followed by addition of NADPH measured after 20 mins by LC-MS/MS analysis; type: ADME
T1 sequence (P05177 whole entry): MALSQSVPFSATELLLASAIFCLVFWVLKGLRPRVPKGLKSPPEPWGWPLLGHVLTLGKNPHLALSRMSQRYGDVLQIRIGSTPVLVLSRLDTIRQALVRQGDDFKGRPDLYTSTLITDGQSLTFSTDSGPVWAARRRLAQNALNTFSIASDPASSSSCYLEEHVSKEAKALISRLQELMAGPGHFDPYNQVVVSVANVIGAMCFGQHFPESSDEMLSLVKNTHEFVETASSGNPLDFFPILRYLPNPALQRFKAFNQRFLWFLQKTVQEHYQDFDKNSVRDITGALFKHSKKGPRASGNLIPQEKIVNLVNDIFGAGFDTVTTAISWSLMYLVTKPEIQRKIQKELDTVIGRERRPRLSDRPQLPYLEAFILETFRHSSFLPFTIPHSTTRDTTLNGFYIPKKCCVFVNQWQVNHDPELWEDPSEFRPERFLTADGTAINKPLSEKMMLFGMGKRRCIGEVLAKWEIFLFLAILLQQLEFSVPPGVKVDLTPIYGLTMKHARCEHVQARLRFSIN

[31] = Half-life in mouse hepatocytes at 100 uM incubated up to 120 mins by LC-MS/MS analysis; type: ADME, cell-based, Hepatocyte
[32] = Acute toxicity in Sprague-Dawley rat assessed as change in ratio of thymus to body weight at 15 to 200 mg/kg, po administered every alternate days for 2 weeks measured on day 14; type: organism-based; conditions: in vivo, 336 h, dose 15-200 mg/kg, time 14 day

O=C(O)CNC(=O)c1ncc(C#CCOc2ccc(Cl)cc2)cc1O [DDO-3055]
MRT inf [1]: 9.43 h
Activity [2]: Non-Toxic
Activity [3]: Non-Toxic
CL/F [4]: 25.5 mL/min/kg
Cmax [5]: 735 ng/mL
Activity [6]: Non-Toxic
Cmax [7]: 1030 ng/mL
Ratio IC50 [8]: 1560
half-life [9]: 2.91 h
CLH [10]: < 0.01 mL/min/kg
clearance [11]: 3.44 mL/min/kg
inhibition [12]: Dose-dependent effect
Ratio IC50 [13]: > 156
half-life at 1 µM [14]: > 2.32 h
Activity [15]: Non-Toxic
CLH [16]: < 0.01 mL/min/kg
AUC(0-inf) [17]: 636 ng·h/mL
Activity [18]: Non-Toxic
Activity [19]: >1000 pg/mL
Vz [20]: 3.409 L/kg
AUC(0-t) [21]: 1360 ng·h/mL
Activity [22]: 83.3%
Activity [23]: Non-Toxic
Activity [24]: Non-Toxic
half-life at 1 µM [25]: > 2.32 h
Activity [26]: Non-Toxic
CLH [27]: < 0.013 mL/min/kg
AUC(0-inf) [28]: 1370 ng·h/mL
Activity [29]: Non-Toxic
IC50 [30]: > 30 µM
half-life at 100 µM [31]: 8.68 min
Activity [32]: Non-Toxic
